A word on the IC50: it is the concentration at which inhibition is half-maximal. Low values mean inhibition by little substance, high ones a need for much substance. The term DC50 denotes the midpoint of the concentration-degradation curve. High values mean degradation only at high concentration, low ones degradation at low concentration. What is called AUC(0-t) is the area under the concentration-time curve up to a stated or last time point.

Data set [1] has as its target T1, hERG potassium ion channel (Homo sapiens, UniProt Q12809).
T1 construct: expressed in transfected cells
The data set can be described thus: Effect on hERG potassium ion channel, manual whole cell patch-clamp in CHO cells. The data set is classed as cell-based. Particulars: hamster, inhibitory effect on hERG potassium channel current. From the text: Test example 3. Test of effect on hERG potassium ion channel
Experimental platform: electrophysiological manual patch-clamp system
Cell line: Chinese hamster ovary (CHO) cell line stably expressing hERG potassium ion channel
Experimental method: In CHO (Chinese Hamster Ovary) cells stably expressing hERG potassium channel, whole cell patch-clamp technique was used to record hERG potassium channel current at room temperature. The glass microelectrode was made of a glass electrode blank (BF150-86-10, Sutter) by a puller. The tip resistance after filling the liquid in the electrode was about 2-5 MΩ. The glass microelectrode can be connected to the patch-clamp amplifier by inserting the glass microelectrode into an amplifier probe. The clamping voltage and data recording were controlled and recorded by the pClamp 10 software through a computer. The sampling frequency was 10 kHz, and the filtering frequency was 2 kHz. […]
Compound IC50 was calculated using GraphPad Prism 5 software by fitting according to the following equation: Y = Bottom + (Top−Bottom)/(1+10^(∧)((LogIC50−X)*HillSlope)) [formula] where X represents the Log value of the tested concentration of the test sample, Y represents the inhibition percentage at the corresponding concentration, and Bottom and Top represent the minimum and maximum inhibition percentage, respectively. […]
(In general: hERG is a cardiac potassium channel; its block is linked to QT prolongation.)

The target in another data set is T2, IRAK4 (Homo sapiens, UniProt Q9NWZ3).
T2 construct: endogenous in cells; host or cells: human peripheral blood mononuclear cells (hPBMC) from healthy volunteers
T2 sequence (Q9NWZ3 1-460): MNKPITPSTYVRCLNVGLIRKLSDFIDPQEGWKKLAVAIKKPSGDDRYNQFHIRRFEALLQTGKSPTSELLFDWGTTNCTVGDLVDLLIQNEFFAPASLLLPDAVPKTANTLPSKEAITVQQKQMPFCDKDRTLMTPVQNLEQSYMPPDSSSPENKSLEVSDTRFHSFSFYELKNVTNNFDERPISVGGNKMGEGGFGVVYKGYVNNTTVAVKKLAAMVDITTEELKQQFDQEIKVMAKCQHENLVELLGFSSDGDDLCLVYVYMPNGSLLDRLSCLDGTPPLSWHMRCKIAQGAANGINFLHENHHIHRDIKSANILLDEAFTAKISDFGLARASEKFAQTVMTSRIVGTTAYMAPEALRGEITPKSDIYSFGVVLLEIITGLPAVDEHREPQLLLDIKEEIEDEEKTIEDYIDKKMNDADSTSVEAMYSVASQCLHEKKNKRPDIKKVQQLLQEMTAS
Briefly: IRAK4 degradation activity in hPBMC cells (24 hours), automated western blot. It counts as cell-based. The note with it: IRAK4 protein degradation in hPBMC cells. The procedure:
Test example 1: Study on IRAK4 degradation activity in hPBMC cells (24 hours)
hPBMC cells are human peripheral blood mononuclear cells. Peripheral venous blood was taken from healthy volunteers, and hPBMCs were isolated using Ficoll density gradient centrifugation (Ficoll-PaqueTM PLUS 1.077, GE, Cat. 17-1140-02). Culture conditions: RPMI-1640 + 10% FBS + 1% penicillin-streptomycin solution. The cells were cultured in an incubator at 37°C and 5% CO2. The cells were plated in a 24-well plate at 1 × 10^6 cells/well. After plating, compounds at different concentrations were added, and the cells were cultured in an incubator at 37°C and 5% CO2 for 24 hours. After the culture was completed, the cells were collected, and RIPA lysis buffer (beyotime, Cat. P0013B) was added. […] The protein sample of the supernatant was collected, the protein was quantified using a BCA kit (Beyotime, Cat. P0009), and then the protein was diluted to 1 mg/mL. The expression of IRAK4 (CST, Cat. 4363S) and the internal reference cofilin (CST, Cat. 5175S) were detected using a fully automated western blot quantitative analyser (Proteinsimple). The expression level of IRAK4 relative to the internal reference was calculated using compass software. […] An IRAK4 degradation-drug concentration curve was fit using Graphpad Prism 8 software, and the DC50 was calculated. […]

Data set [2] is described as follows: Pharmacokinetic test in mice. It counts as in vivo, ICR mice. The note with it: mouse, po; plasma of mice, i.g. (10 mg/kg). The procedure: Test example 2: Pharmacokinetic test in mice
Experimental animals: Male ICR mice, about 25 g, 6 mice/compound, purchased from Chengdu Ddossy Experimental Animals Co., Ltd.
Test design: On the day of the experiment, 6 ICR mice were randomly grouped according to their body weights. The animals were fasted with water available for 12 to 14 h one day before the administration, and were fed 4 h after the administration. Table 2.1 Administration information
Before and after the administration, 0.15 mL of blood was taken from the orbit of the animals under isoflurane anaesthesia and placed in an EDTAK2 centrifuge tube. The blood was centrifuged at 5000 rpm and 4°C for 10 min to collect plasma. The blood collection time points for the intravenous administration group and intragastric administration group were 0 min, 5 min, 15 min, 30 min, 1 h, 2 h, 4 h, 7 h and 24 h. Before analysis and detection, all samples were stored at - 60°C. The samples were analysed quantitatively by LC-MS/MS. Table 2.2 Pharmacokinetic parameters of compounds of the present invention in plasma of mice

T1 sequence (Q12809 whole entry): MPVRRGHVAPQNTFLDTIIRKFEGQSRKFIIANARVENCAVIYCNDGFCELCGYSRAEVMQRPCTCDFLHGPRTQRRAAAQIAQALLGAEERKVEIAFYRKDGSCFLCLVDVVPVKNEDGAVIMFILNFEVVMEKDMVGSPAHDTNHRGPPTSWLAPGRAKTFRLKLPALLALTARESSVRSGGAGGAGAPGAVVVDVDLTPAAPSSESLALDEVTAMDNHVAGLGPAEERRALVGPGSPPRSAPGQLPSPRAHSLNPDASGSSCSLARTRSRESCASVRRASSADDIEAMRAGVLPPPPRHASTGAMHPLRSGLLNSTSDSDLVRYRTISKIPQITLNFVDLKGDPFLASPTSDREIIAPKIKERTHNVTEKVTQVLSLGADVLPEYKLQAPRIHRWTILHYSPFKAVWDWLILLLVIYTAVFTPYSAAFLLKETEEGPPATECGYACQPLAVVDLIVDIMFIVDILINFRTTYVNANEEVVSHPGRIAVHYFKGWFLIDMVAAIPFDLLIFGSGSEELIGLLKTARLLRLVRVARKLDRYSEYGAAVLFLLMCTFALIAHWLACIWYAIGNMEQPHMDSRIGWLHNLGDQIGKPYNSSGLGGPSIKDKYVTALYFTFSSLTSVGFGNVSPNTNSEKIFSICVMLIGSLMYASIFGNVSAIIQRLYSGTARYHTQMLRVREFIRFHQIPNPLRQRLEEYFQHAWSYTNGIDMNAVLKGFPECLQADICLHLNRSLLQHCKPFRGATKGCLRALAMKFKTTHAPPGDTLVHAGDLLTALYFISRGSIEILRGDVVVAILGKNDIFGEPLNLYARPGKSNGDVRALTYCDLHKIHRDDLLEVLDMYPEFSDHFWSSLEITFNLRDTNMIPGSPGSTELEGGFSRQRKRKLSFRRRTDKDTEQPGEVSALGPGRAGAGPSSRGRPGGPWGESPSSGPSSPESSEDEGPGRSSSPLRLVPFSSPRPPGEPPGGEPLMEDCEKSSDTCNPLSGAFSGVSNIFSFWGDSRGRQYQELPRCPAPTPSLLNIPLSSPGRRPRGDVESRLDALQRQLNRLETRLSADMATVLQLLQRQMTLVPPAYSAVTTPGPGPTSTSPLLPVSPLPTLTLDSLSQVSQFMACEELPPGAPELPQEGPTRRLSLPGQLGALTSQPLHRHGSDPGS

As for `Cn1nc(C2CCC(=O)NC2=O)c2cccc(C#CCO[C@@H]3CCN(C[C@H]4CC[C@H](n5cc(NC(=O)c6cnn7ccc(N8CCO[C@H](CO)C8)nc67)c(C(F)F)n5)CC4)C[C@@H]3F)c21` (single isomer, unassigned) [Chiral isomer 1 of compound 20], the IC50 in data set [1] is > 40 µM. The 50% degradation concentration (DC50) on IRAK4 was < 20 nM.
The compound `Cn1c(=O)n(C2CCC(=O)NC2=O)c2cccc(C#CCOC3CCN(C[C@H]4CC[C@H](n5cc(NC(=O)c6cnn7ccc(N8C[C@H]9C[C@@H]8CO9)nc67)c(C(F)F)n5)CC4)CC3)c21` (stereo partly shown) [Control compound 1] registered an AUC(0-t) at 24 h in data set [2] of 2320 ± 146 ng·h/mL.
Take `Cn1nc(C2CCC(=O)NC2=O)c2cccc(C#CCO[C@@H]3CCN(C[C@H]4CC[C@H](n5cc(NC(=O)c6cnn7ccc(N8CCO[C@H](CO)C8)nc67)c(C(F)F)n5)CC4)C[C@@H]3F)c21` (single isomer, unassigned) [Chiral isomer 2 of compound 20]: the DC50 on IRAK4 is < 20 nM.

The record behind these values is patent EP4740965A1, “PHARMACEUTICAL COMPOSITION OF COMPOUND FOR INHIBITING AND DEGRADING IRAK4, AND USE THEREOF IN MEDICINE” (Xizang Haisco Pharmaceutical Co., Ltd., priority 2023, dated 2025).
